Test results reported in patent publication EP2939983A1, “Titanium dioxide-catalysed oxidation method” (Sistiana Inversiones S.L., priority 2014, dated 2015).

How the values were obtained:
[1] = in water; cited from earlier work
[2] = Rhodamine B degradation kinetics with TiO2 catalyst, H2O2 and acid in the absence of light
Source text: The walls of a beaker (Ǿ = 10 cm) were covered with aluminum foil to prevent any light exposure to the inside. A magnetic stirrer was introduced in a smaller beaker (Ǿ = 6.5 cm), which was then covered on the top with parafilm and a small hole was punched thereon. The smaller beaker was introduced concentrically into the larger one. To immobilize the inner beaker, a foam was placed between the walls of the two vessels. A cover of the same foam (Ǿ = 10 cm, 1.5 cm thick) was placed on the top of the larger beaker. In the cover, a hole (Ǿ = 0.5 cm) close to the inside wall of the inner beaker facilitated sample collection in the vortex formed during the agitation of the reaction mixture. A second hole situated on the opposite side of the first one was punched in order to facilitate pH measurements.
The catalytic reactor was placed on the stirrer (VMS-C4, VWR) at around 750 rpm. Then, the inner beaker was filled with the help of a funnel with the required amount of TiO2. Immediately afterwards, the appropriate amount of 9.8 M H2O2 and deionised water, in each case, for a total volume of 20 mL, was introduced. The mixture was stirred for 1 minute, and 20 mL of the required concentration of Rhodamine B were then added. In the cases where an acid was employed, the corresponding amount of acid to achieve a particular pH was introduced in the reaction mixture before the addition of Rhodamine B. After 3 minutes stirring, an aliquot of 1 mL was taken through a plastic Pasteur pipette and was introduced in an Eppendorf tube (1.5 mL). The sample was centrifugated (Mikro 120, Hettich Zentrifugen) at 14000 rpm for 1 minute. The supernatant was centrifugated again under the same conditions and the remaining supernatant was placed in a 1.5 mL cuvette for analysis in a spectrophotometer (Du 730, Beckman Coulter). […] Finally, the TiO2 and the liquid were reintroduced into the inner beaker. The procedure, starting with the 1 mL aliquot extraction, was repeated (at least) every 3 min for a maximum of 2 h. The experiment was repeated 4 times for every imposed condition.
Linear regressions were conducted with the obtained data. […] The kinetic constant of the reaction was the parameter used to compare the oxidative capacity of the different oxidation conditions in the method of the invention.

[3] = 5% H2O2, 10g/L TiO2 (aeroxide P90), pH=3 (HCl), 0.025 mM Rhodamine B; reaction order 0.66
[4] = 0.025 mM Rhodamine B, 30g/L of TiO2 (aeroxide P90), 5% H2O2 solution
[5] = 0.025 mM Rhodamine B, 30g/L of TiO2 (aeroxide P90), 5% H2O2 solution, pH 2.0
[6] = 0.025 mM Rhodamine B, 30g/L of TiO2 (aeroxide P90), 5% H2O2 solution, pH 2.0, absence of light
[7] = 0.050 mM Rhodamine B, 10g/L of TiO2 (aeroxide P90), 5% H2O2 solution, pH of 2

[O]=[Cr](=[O])([OH])[OH] [chromic acid]
pKa [1]: -0.1

O=C(O)C(F)(F)F [trifluoroacetic acid]
pKa [1]: -0.25

O=S(=O)(O)O [Sulfuric, sulfuric acid]
Rate constants for degradation kinetics (k554/min^-1), pH 1.5 [2, 4]: 0.2360±0.0430 min^-1 | Rate constants for degradation kinetics (k554/min^-1), pH 2.0 [2, 5]: 0.1124±0.0112 min^-1 | Rate constants for degradation kinetics (k544/min^-1) [2, 6]: 0.1124 ± 0.0112 min⁻¹ | Rate constants for degradation kinetics (k544/min^-1) [2, 7]: 0.0293 ± 0.0021 min⁻¹

Cl [Hydrochloric, hydrochloric acid]
Rate constants for degradation kinetics (k554/min^-1), pH 1.5 [2]: 0.3370±0.0990 min^-1 | Rate constants for degradation kinetics (k554/min^-1), pH 2.0 ([2]; pH 2): 0.1260±0.0173 min^-1

O=CO [Formic, formic acid, reference compound]
Rate constants for degradation kinetics (k544/min^-1) ([2]; pH 2): 0.0263 ± 0.0035 min⁻¹

O=S(O)O [sulfurous acid]
pKa [1]: 1.9

O=O [oxygen]
kinetic constant greater than that of the reaction not supplied with oxygen [3]: about 15%

[O-][Cl+3]([O-])([O-])O [Perchloric, perchloric acid]
Rate constants for degradation kinetics (k554/min^-1), pH 1.5 [2, 4]: 0.3550±0.1180 min^-1 | Rate constants for degradation kinetics (k554/min^-1), pH 2.0 [2, 5]: 0.1194±0.0095 min^-1 | Rate constants for degradation kinetics (k544/min^-1) [2, 6]: 0.1194 ± 0.0095 min⁻¹ | Rate constants for degradation kinetics (k544/min^-1) [2, 7]: 0.0318 ± 0.0021 min⁻¹
